From ChEMBL document CHEMBL5728174 (2020)
pEC50: −log10 of the molar value.

Legend:
[1] = (§1) After a 3-day incubation at 37° C. cell viability was determined by the MTT method as described by Pauwels et al. (J. Virol. Methods 1988, 20, 309-321).To determine the cytotoxicity, cells were seeded at an initial density of 1×10^6 cells/mL in 96 well plates containing Minimum Essential Medium with Earles's salts (MEM-E), L-glutamine, 1 mM sodium pyruvate and 25 mg/L kanamycin, supplemented with 10% fetal bovine serum. Cell cultures were then incubated at 37° C. in a humidified 5% CO2 atmosphere in the absence or presence of serial dilutions of test compounds. Cell viability was determined by the MTT method.; format: cell-based
[2] = as §1; format: cell-based; remark: listed apart in the source

Measured: pEC50

CC(C)OC(=O)[C@H](C)N[P@](=O)(OCC1O[C@@H](n2ccc(=O)[nH]c2=O)[C@](C)(F)[C@@H]1O)Oc1ccccc1 (some centres undefined)
< 4.00: [1] | [1]; 72 h | [2] | [2]; BHK-21, 72 h
